# Measurements from patent US9936699B2, “Halogen-substituted compounds” (BAYER CROPSCIENCE AKTIENGESELLSCHAFT, priority 2014, dated 2018).
# Tests used:
# [1] = logP determination by HPLC on reversed-phase column (C18), EEC Directive 79/831 Annex V.A8; assay type: physicochemical; conditions: reversed-phase C18, acetonitrile/water with formic acid; for chromatographic logP: reversed-phase C18 HPLC column
# [2] = tested on: adult cat fleas (Ctenocephalides felis); assay: Ctenocephalides felis in-vitro contact test, adult cat flea; assay type: in vivo; conditions: 5 μg/cm^2 (=500 g/ha), after 48 hours
# Experimental: Ctenocephalides felis—In-Vitro Contact Tests Adult Cat Flea
# (§1) 9 mg compound is solved in 1 ml acetone and diluted with acetone to the desired concentration. 250 μl of the test solution is filled in 25 ml glass test tubes and homogeneously distributed on the inner walls by rotation and tilting on a shaking device (2 h at 30 rpm). With a compound concentration of 900 ppm, an inner surface of 44.7 cm^2 and a homogeneous distribution, a dose of 5 μg/cm^2 is achieved.
# After the solvent has evaporated, each test tube is filled with 5-10 adult cat fleas (Ctenocephalides felis), closed with a perforated lid and incubated in a lying position at room temperature and relative humidity. After 48 hours efficacy is determined. The fleas are patted on the ground of the tubes and are incubated on a heating plate at 45-50° C. for at most 5 minutes. Immotile or uncoordinated moving fleas, which are not able to escape the heat by climbing upwards, are marked as dead or moribund.
# An efficacy of 100% means all fleas are dead or moribund; 0% means no fleas are dead or moribund.
# [3] = tested on: Tick nymphs (Amblyomma hebraeum); assay: Amblyomma hebraeum test (AMBYHE); assay type: in vivo; conditions: 100 ppm, after 42 days
# Experimental: Amblyomma hebraeum—Test (AMBYHE)
# (§2) Solvent: dimethyl sulfoxide
# Tick nymphs (Amblyomma hebraeum) are placed in perforated plastic beakers and immersed in the aqueous compound solution for one minute. Ticks are transferred to a filter paper in a petridish and incubated in a climate chamber.
# [4] = tested on: cattle ticks (Boophilus microplus) strane Parhurst, SP-resistant; assay: Boophilus microplus dip test (BOOPMI Dip); assay type: in vivo; conditions: 100 ppm, egg deposition after 7 days
# Description: Boophilus microplus—Diptest (BOOPMI Dip)
# Test animal: cattle ticks (Boophilus microplus) strane Parhurst, SP-resistant
# as §2
# This compound solution is pipetted into tubes. 8-10 engorged, adult, female cattle ticks (Boophilus microplus) are placed in perforated tubes. These tubes are immersed in the aqueous compound solution until the ticks are completely moistened. After the liquid has drained off, the ticks are transferred to a filter paper in a plastic tray and stored in a climate chamber.
# (§3) After 7 days egg deposition of fertile eggs is monitored. Eggs where fertility is not visible are stored in a climate chamber till hatching after about 42 days. An efficacy of 100% means all eggs are infertile; 0% means all eggs are fertile.
# [5] = tested on: adult engorged female ticks (Boophilus microplus); assay: Boophilus microplus injection test (BOOPMI Inj); assay type: in vivo; conditions: 20 μg/animal, egg deposition after 7 days
# Experimental: Boophilus microplus—Injectiontest (BOOPMI Inj)
# as §2
# Five adult engorged female ticks (Boophilus microplus) are injected with 1 μl compound solution into the abdomen. The ticks are transferred into replica plates and incubated in a climate chamber.
# as §3
# [6] = tested on: adult house flies (Musca domestica); assay: Musca domestica test (MUSCDO); assay type: in vivo; conditions: 100 ppm, after 2 days
# Description: Musca domestica—Test (MUSCDO)
# as §2
# 10 adult house flies (Musca domestica) are transferred into a container, containing a sponge soaked with a mixture of sugar solution and compound solution of the desired concentration.
# [7] = tested on: fall armyworm larvae (Spodoptera frugiperda); assay: Spodoptera frugiperda spray test (maize leaf sections); assay type: in vivo; conditions: 100 g/ha, after 7 days
# Description: Spodoptera frugiperda—Spray Test
# (§4) Solvent: 78.0 parts by weight acetone
# (§5) • 1.5 parts by weight dimethylformamide Emulsifier: alkylarylpolyglycol ether
# Maize (Zea mays) leaf sections are sprayed with a preparation of the active ingredient of the desired concentration. Once dry, the leaf sections are infested with fall armyworm larvae (Spodoptera frugiperda).
# [8] = tested on: two-spotted spider mite (Tetranychus urticae); assay: Tetranychus urticae spray test; OP-resistant (bean plants); assay type: in vivo; conditions: after 7 days
# [9] = tested on: larvae of the Australian sheep blowfly (Lucilia cuprina); assay: Lucilia cuprina test (LUCICU); assay type: in vivo; conditions: 100 ppm, after 2 days
# Experimental: Lucilia cuprina—Test (LUCICU)
# as §2
# 10 mg active compound are dissolved in 0.5 ml Dimethylsulfoxid. Serial dilutions are made to obtain the desired rates.
# Approximately 20 […] instar larvae of the Australian sheep blowfly (Lucilia cuprina) are transferred into a test tube containing minced horse meat and compound solution of the desired concentration.
# [10] = tested on: green peach aphid (Myzus persicae); assay: Myzus persicae spray test (pepper leaves); assay type: in vivo; conditions: after 6 days
# [11] = tested on: green peach aphid (Myzus persicae); assay: Myzus persicae spray test (Chinese cabbage leaf disks); assay type: in vivo; conditions: 20 g/ha, after 6 days
# Experimental: Myzus persicae—Spray Test
# as §4, §5
# Chinese cabbage (Brassica pekinensis) leaf disks infected with all instars of the green peach aphid (Myzus persicae), are sprayed with a preparation of the active ingredient of the desired concentration.
# After 6 days mortality in % is determined.
# [12] = tested on: adult brown dog ticks (Rhipicephalus sanguineus); assay: Rhipicephalus sanguineus in-vitro contact test with adult brown dog ticks; assay type: in vivo; conditions: 5 μg/cm^2 (=500 g/ha), after 48 hours
# Experimental: Rhipicephalus sanguineus—In-Vitro Contact Tests with Adult Brown Doe Ticks
# as §1
# After the solvent has evaporated, each test tube is filled with 5-10 adult brown dog ticks (Rhipicephalus sanguineus), closed with a perforated lid and incubated in a lying position at room temperature and relative humidity. After 48 hours efficacy is determined. The ticks are patted on the ground of the tubes and are incubated on a heating plate at 45-50° C. for at most 5 minutes. Immotile or uncoordinated moving ticks, which are not able to escape the heat by climbing upwards, are marked as dead or moribund.
# An efficacy of 100% means all ticks are dead or moribund; 0% means no ticks are dead or moribund.
compound,measurement,setting,value
Cc1ncc(-c2cnn(-c3c([S+](C)[O-])c(C(F)(F)C(F)(F)F)nn3C)c2)cc1C(=O)NC1CC1 (stereo not drawn) [Example I-14],logP,[1],1.85
CSc1c(C(F)(F)C(F)(F)F)nn(C)c1-n1cc(-c2cnc(Cl)c(C(=O)N(C)C3CC3)c2)cn1 [Example I-19],logP,[1],3.67
Cn1nc(C(F)(F)C(F)(F)F)c(S(C)(=O)=O)c1-n1cc(-c2ccc(Cl)c(C(=O)NC3CC3)c2)cn1 [Example I-07],logP,[1],2.78
same,efficacy (fleas dead or moribund),[2],100%
same,mortality in %,[3],100%
same,efficacy (infertile eggs),[4],100%
same,efficacy (infertile eggs),[5],100%
same,mortality in %,[6],100%
same,mortality in %,[7],100%
Cn1nc(C(F)(F)C(F)(F)F)c([S+](C)[O-])c1-n1cc(-c2ccc(Cl)c(C(=O)NC3(C#N)CC3)c2)cn1 (racemic) [Example I-03],logP,[1],2.61
same,efficacy (fleas dead or moribund),[2],100%
same,efficacy (infertile eggs),[5],100%
same,mortality in %,[6],100%
Cc1ccc(-c2cnn(-c3c([S+](C)[O-])c(C(F)(F)C(F)(F)F)nn3C)c2)cc1C(=O)NC1(C#N)CC1 (stereo not drawn) [Example I-24],logP,[1],2.57
same,efficacy (infertile eggs),[5],100%
CC[S+]([O-])c1c(C(F)(F)C(F)(F)F)nn(C)c1-n1cc(-c2ccc(Cl)c(C(=O)NC3(C#N)CC3)c2)cn1 (stereo not drawn) [Example I-25],logP,[1],2.84
same,mortality in %,[8]; 4 ppm,95%
"CSc1c(C(F)(F)C(F)(F)F)nn(C)c1-n1cc(Br)cn1 [Example 15, 4-bromo-2′-methyl-4′-(methylsulfanyl)-5′-(pentafluoroethyl)-2′H-1,3′-bipyrazole]",chromatographic logP,[1],3.95
"Cn1nc(C(F)(F)C(F)(F)F)c(N)c1-n1cc(Br)cn1 [Example 14, 4-bromo-2′-methyl-5′-(pentafluoroethyl)-2′H-1,3′-bipyrazol-4′-amine]",chromatographic logP,[1],2.68
Cn1nc(C(F)(F)F)c(S(C)(=O)=O)c1-n1cc(-c2ccc(Cl)c(C(=O)NC3CC3)c2)cn1 [Example I-05],logP,[1],2.34
same,efficacy (infertile eggs),[5],100%
same,mortality in %,[9],90%
same,mortality in %,[10]; 20 ppm,100%
Cn1nc(C(F)(F)C(F)(F)F)c(S(C)(=O)=O)c1-n1cc(-c2ccc(Cl)c(C(=O)NC3(C#N)CC3)c2)cn1 [Example I-04],logP,[1],2.77
same,efficacy (infertile eggs),[5],100%
same,mortality in %,[6],100%
Cc1ccc(-c2cnn(-c3c(S(C)(=O)=O)c(C(F)(F)C(F)(F)F)nn3C)c2)cc1C(=O)NC1CC1 [Example I-09],logP,[1],2.75
same,efficacy (fleas dead or moribund),[2],100%
same,efficacy (infertile eggs),[4],80%
same,efficacy (infertile eggs),[5],100%
same,mortality in %,[9],90%
same,mortality in %,[6],80%
CCSc1c(C(F)(F)C(F)(F)F)nn(C)c1-n1cc(-c2ccc(Cl)c(C(=O)NC3CC3)c2)cn1 [Example I-11],logP,[1],3.85
same,mortality in %,[3],100%
same,efficacy (infertile eggs),[4],100%
same,efficacy (infertile eggs),[5],100%
same,mortality in %,[6],100%
same,mortality in %,[7],100%
Cc1ccc(-c2cnn(-c3c(S(C)(=O)=O)c(C(F)(F)C(F)(F)F)nn3C)c2)cc1C(=O)NC1(C#N)CC1 [Example I-23],logP,[1],2.79
same,efficacy (infertile eggs),[5],100%
same,mortality in %,[11],100%
CSc1c(C(F)(F)C(F)(F)F)nn(C)c1-n1cc(-c2ccc(Cl)c(C(=O)NC3CC3)c2)cn1 [Example I-12],logP,[1],3.65
same,efficacy (fleas dead or moribund),[2],100%
same,efficacy (ticks dead or moribund),[12],100%
same,efficacy (infertile eggs),[4],100%
same,efficacy (infertile eggs),[5],100%
same,mortality in %,[6],100%
same,mortality in %,[7],100%
Cc1ncc(-c2cnn(-c3c([S+](C)[O-])c(C(F)(F)C(F)(F)F)nn3C)c2)cc1C(=O)NC1(C#N)CC1 (stereo not drawn) [Example I-10],logP,[1],1.99
Cn1nc(C(F)(F)C(F)(F)F)c([S+](C)[O-])c1-n1cc(-c2cnc(Cl)c(C(=O)NC3(C#N)CC3)c2)cn1 (stereo not drawn) [Example I-20],logP,[1],2.23
same,efficacy (infertile eggs),[5],100%
same,mortality in %,[6],90%
same,mortality in %,[10]; 4 ppm,95%
CC[S+]([O-])c1c(C(F)(F)C(F)(F)F)nn(C)c1-n1cc(-c2ccc(Cl)c(C(=O)NC3CC3)c2)cn1 (stereo not drawn) [Example I-22],logP,[1],2.88
"Cn1nc(C(F)(F)C(F)(F)F)c([S+](C)[O-])c1-n1cc(-c2ccc(Cl)c(C(=O)NC3(C#N)CC3)c2)cn1 (single isomer, unassigned) [Example I-08]",logP,[1],2.59
"Cn1nc(C(F)(F)C(F)(F)F)c([S+](C)[O-])c1-n1cc(-c2ccc(Cl)c(C(=O)NC3(C#N)CC3)c2)cn1 (single isomer, unassigned) [Example I-21]",logP,[1],2.59
CSc1c(C(F)(F)C(F)(F)F)nn(C)c1-n1cc(-c2ccc(C)c(C(=O)NC3(C#N)CC3)c2)cn1 [Example I-16],logP,[1],3.55
Cn1nc(C(F)(F)F)c([S+](C)[O-])c1-n1cc(-c2ccc(Cl)c(C(=O)NC3(C#N)CC3)c2)cn1 (stereo not drawn) [Example I-01],logP,[1],2.16
same,mortality in %,[8]; 20 ppm,100%
Cc1ccc(-c2cnn(-c3c([S+](C)[O-])c(C(F)(F)C(F)(F)F)nn3C)c2)cc1C(=O)NC1CC1 (stereo not drawn) [Example I-18],logP,[1],2.57
same,efficacy (fleas dead or moribund),[2],100%
same,efficacy (ticks dead or moribund),[12],80%
same,efficacy (infertile eggs),[5],100%
CCSc1c(C(F)(F)C(F)(F)F)nn(C)c1-n1cc(-c2ccc(Cl)c(C(=O)NC3(C#N)CC3)c2)cn1 [Example I-15],logP,[1],3.76
same,efficacy (fleas dead or moribund),[2],100%
same,efficacy (ticks dead or moribund),[12],100%
same,mortality in %,[3],100%
same,efficacy (infertile eggs),[4],100%
same,efficacy (infertile eggs),[5],100%
same,mortality in %,[6],90%
same,mortality in %,[7],100%
CSc1c(C(F)(F)C(F)(F)F)nn(C)c1-n1cc(-c2ccc(C)c(C(=O)NC3CC3)c2)cn1 [Example I-17],logP,[1],3.64
